Experimental data taken from patent publication US20230339978A1, “COMPOUNDS FOR PREVENTION OR TREATMENT OF NEURODEGENERATIVE DISORDERS” (1ST Biotherapeutics, Inc., priority 2020, published 2023).

Assays:
[1] = test system: IL-6 secretion in BV-2 cell; test: IL-6 Secretion in BV-2 Cell (L18-MDP stimulated, ELISA); type: cell-based; conditions: BV-2 mouse microglia cells, 10 µg/ml L18-MDP, 24 hr
Procedure: IL-6 Secretion in BV-2 Cell
BV-2 mouse microglia cells were kindly provided from Dr. Bae in Korea Institute of Science and Technology (KIST). BV-2 cells were thawed and suspended in Dulbecco’s modified eagle medium (DMEM) supplemented with 10% fetal bovine serum (FBS) and 1% Penicillin/Streptomycin. Cells were seeded into 96 well plates at 2X10^4 cells/well and allowed to attach for 24 hr. On the day of the experiment, various concentration of compounds were treated, and cells were stimulated with 10 µg/ml L18-MDP. After 24 hr incubation, supernatant was collected for cytokine assay.
Absorbance at 450 nm was measured using SpectraMax I3X microplate reader (Molecular Device). Values of media-only wells were subtracted and % inhibition for each compound concentration relative to the DMSO/L18-MDP-treated controls (100%) was calculated.

[2] = target: His-tagged recombinant human ABL1 (Homo sapiens (Human), UniProt P00519); conditions: read-out: c-Abl IC50; 25 µM ATP, Abltide substrate, 30° C. 30-min
His-tagged recombinant human ABL1, sequence (P00519 whole entry): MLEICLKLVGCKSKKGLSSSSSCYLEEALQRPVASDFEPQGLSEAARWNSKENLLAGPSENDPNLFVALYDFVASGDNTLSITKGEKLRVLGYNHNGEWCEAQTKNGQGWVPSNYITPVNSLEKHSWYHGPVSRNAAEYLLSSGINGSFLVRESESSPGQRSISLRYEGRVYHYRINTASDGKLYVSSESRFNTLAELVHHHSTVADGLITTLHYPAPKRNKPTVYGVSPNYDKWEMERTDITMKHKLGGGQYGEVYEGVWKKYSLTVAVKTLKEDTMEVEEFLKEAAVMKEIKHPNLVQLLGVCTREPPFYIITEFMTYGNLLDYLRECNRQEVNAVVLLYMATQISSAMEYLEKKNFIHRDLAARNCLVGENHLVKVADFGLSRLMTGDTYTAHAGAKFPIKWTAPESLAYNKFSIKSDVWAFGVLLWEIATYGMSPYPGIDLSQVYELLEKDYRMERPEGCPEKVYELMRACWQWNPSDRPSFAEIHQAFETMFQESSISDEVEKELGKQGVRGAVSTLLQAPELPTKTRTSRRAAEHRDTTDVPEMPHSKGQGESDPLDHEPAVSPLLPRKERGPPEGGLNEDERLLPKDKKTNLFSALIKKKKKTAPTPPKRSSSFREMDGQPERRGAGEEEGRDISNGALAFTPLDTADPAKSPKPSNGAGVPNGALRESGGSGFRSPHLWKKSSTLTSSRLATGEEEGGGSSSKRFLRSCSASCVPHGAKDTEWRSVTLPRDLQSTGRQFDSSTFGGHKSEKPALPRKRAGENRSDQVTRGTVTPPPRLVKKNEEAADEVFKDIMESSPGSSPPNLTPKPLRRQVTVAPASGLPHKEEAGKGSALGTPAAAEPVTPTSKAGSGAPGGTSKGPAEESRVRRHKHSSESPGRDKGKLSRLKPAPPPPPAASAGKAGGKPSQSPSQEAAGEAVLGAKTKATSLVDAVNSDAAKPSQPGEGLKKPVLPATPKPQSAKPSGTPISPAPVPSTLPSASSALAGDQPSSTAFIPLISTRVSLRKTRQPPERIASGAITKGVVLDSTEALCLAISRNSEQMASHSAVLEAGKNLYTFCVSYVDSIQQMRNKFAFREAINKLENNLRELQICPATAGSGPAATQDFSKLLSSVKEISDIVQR
Procedure: ADP-Glo assay kit was purchased from Promega. Magnesium chloride (MgCl2), bovine serum albumin (BSA), ethylene glycol-bis(β-aminoethyl ether)-N,N,N′,N′-tetraacetic acid (EGTA), tween-20, 1,4-dithiothreitol (DTT) and dimethyl sulfoxide (DMSO) were purchased from Sigma-Aldrich. HEPES buffer was purchased from Gibco. ABL1 kinase and Abltide were purchased from Signalchem.
c-Abl kinase activity was measured by Promega’s ADP-Glo ® Assay. In this assay, His-tagged recombinant human ABL1 (0.25 ng/µl) is incubated with 5 µL of compounds (0.5% DMSO), 5 µL of Abltide (0.01 µg/µl) and 5 µL of ATP (25 µM) in buffer (50 mM HEPES,7.5; 10 mM MgCl2; 1 mM EGTA; 0.05% BSA; 0.01% Tween-20; 2 mM DTT.). The assay was started by incubating the reaction mixture in a 96-well plate at 30° C. for 30-min. After the incubation, 25 µL ADP-Glo reagent was added and the reaction was incubated at room temperature for 40-min to stop the reaction and degrade residual ATP. The ADP product was then converted to ATP by adding 50 µL per well of detection reagent. Luminescence was detected after 30-min room temperature incubation with the Molecular device I3X plate reader. The IC50 values were calculated from a series of percent inhibition values determined at a range of inhibitor concentration using software routines as implemented in the GraphPad Prism 7 software and Sigma Plot 13.0.

[3] = target: GST-tagged recombinant human RIPK2 (Homo sapiens (Human), UniProt O43353); test: RIP2 Kinase Assay (ADP-Glo); type: biochemical; conditions: 25 µM ATP, MBP substrate, 30° C. 60 minutes
GST-tagged recombinant human RIPK2, sequence (O43353 whole entry): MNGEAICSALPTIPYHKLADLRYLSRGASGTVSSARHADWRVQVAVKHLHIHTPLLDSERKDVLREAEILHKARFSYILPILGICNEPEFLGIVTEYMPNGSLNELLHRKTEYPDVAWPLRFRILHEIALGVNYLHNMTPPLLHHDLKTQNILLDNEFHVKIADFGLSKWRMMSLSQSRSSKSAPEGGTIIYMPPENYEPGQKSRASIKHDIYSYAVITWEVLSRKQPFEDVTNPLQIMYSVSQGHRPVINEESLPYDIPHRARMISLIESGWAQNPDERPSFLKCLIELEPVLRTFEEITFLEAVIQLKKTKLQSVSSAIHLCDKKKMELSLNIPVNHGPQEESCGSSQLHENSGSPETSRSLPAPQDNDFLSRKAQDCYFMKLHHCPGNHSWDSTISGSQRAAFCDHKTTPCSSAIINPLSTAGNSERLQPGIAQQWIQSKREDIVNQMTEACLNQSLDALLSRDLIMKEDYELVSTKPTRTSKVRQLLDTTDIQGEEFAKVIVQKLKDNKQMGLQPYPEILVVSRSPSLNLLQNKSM
Procedure: GST-tagged recombinant human RIPK2(25 ng) is incubated with 5 µL of compounds (0.5% DMSO), 5 µL of MBP (0.5 µg/µl) and 5 µL of ATP (25 µM) in buffer (40 mM Tris, 7.5; 20 mM MgCl2; 0.1 mg/ml BSA; 50 µM DTT). The assay was started by incubating the reaction mixture in a 96-well plate at 30° C. for 60 minutes. After the incubation, 25 µL ADP-Glo reagent was added, and the reaction was incubated at 30° C. for 40 minutes to stop the reaction and degrade residual ATP. The ADP product was then converted to ATP by adding 50 µL per well of detection reagent. Luminescence was detected after 30 minutes room temperature incubation with the Molecular device I3X plate reader. The IC50 values were calculated from a series of percent inhibition values determined at a range of inhibitor concentration using software routines as implemented in the GraphPad Prism 7 software or SigmaPlot 13.0.

Compound | IC50 [1] | IC50 [2] | IC50 [3]
Cc1nc2[nH]ccc2cc1-c1ccn2nc(NC(=O)[C@@H]3C[C@@H]3F)cc2c1 [Example 3, (1S,2S)-2-fluoro-N-(5-(6-methyl-1 H-pyrrolo[2,3-b]pyridin-5-yl)pyrazolo[1,5-a]pyridin-2-yl)cyclopropane-1-carboxamide] | 0.332 µM | 0.0007 µM | 0.025 µM
O=C(Nc1cc2cc(-c3cc4cc[nH]c4nc3Cl)ccn2n1)[C@@H]1C[C@@H]1F [Example 4, (1S,2S)-N-(5-(6-chloro-1H-pyrrolo[2,3-b]pyridin-5-yl)pyrazolo[1,5-a]pyridin-2-yl)-2-fluorocyclopropane-1-carboxamide] | 0.351 µM | 0.0012 µM | 0.0139 µM
O=C(Nc1cc2cc(-c3cnc4[nH]ccc4c3F)ccn2n1)[C@@H]1C[C@@H]1F [Example 5, (1 S,2S)-2-fluoro-N-(5-(4-fluoro-1 H-pyrrolo[2,3-b]pyridin-5-yl)pyrazolo[1,5-a]pyridin-2-yl)cyclopropane-1-carboxamide] | 0.6 µM | 0.0112 µM | 0.0484 µM
COc1c(-c2ccn3nc(NC(=O)[C@@H]4C[C@@H]4F)cc3c2)cnc2[nH]ccc12 [Example 6, (1S,2S)-2-fluoro-N-(5-(4-methoxy-1H-pyrrolo[2,3-b]pyridin-5-yl)pyrazolo[1,5-a]pyridin-2-yl)cyclopropane-1-carboxamide] | 0.806 µM | 0.009 µM | 0.168 µM
O=C(Nc1cc2cc(-c3cnc4[nH]cc(F)c4c3)ccn2n1)[C@@H]1C[C@@H]1F [Example 7, (1S,2S)-2-fluoro-N-(5-(3-fluoro-1 H-pyrrolo[2,3-b]pyridin-5-yl)pyrazolo[1,5-a]pyridin-2-yl)cyclopropane-1-carboxamide] | 0.732 µM | 0.0036 µM | 0.0243 µM
Cc1cc2cc(-c3ccn4nc(NC(=O)[C@@H]5C[C@@H]5F)cc4c3)cnc2[nH]1 [Example 8, (1S,2S)-2-fluoro-N-(5-(2-methyl-1H-pyrrolo[2,3-b]pyridin-5-yl)pyrazolo[1,5-a]pyridin-2-yl)cyclopropane-1-carboxamide] | 0.625 µM | 0.004 µM | 0.0843 µM
Cc1c(-c2ccn3nc(NC(=O)[C@@H]4C[C@@H]4F)cc3c2)cnc2[nH]ccc12 [Example 9, (1S,2S)-2-fluoro-N-(5-(4-methyl-1H-pyrrolo[2,3-b]pyridin-5-yl)pyrazolo[1,5-a]pyridin-2-yl)cyclopropane-1-carboxamide] | 0.101 µM | 0.0031 µM | 0.00877 µM
Nc1c(-c2ccn3nc(NC(=O)[C@@H]4C[C@@H]4F)cc3c2)cnc2[nH]ccc12 [Example 10, (1S,2S)-N-(5-(4-amino-1H-pyrrolo[2,3-b]pyridin-5-yl)pyrazolo[1,5-a]pyridin-2-yl)-2-fluorocyclopropane-1-carboxamide] | 3.94 µM | 0.0542 µM | 0.0915 µM
O=C(Nc1cc2cc(-c3cnc4[nH]cc(Cl)c4c3)ccn2n1)[C@@H]1C[C@@H]1F [Example 11, (1S,2S)-N-(5-(3-chloro-1H-pyrrolo[2,3-b]pyridin-5-yl)pyrazolo[1,5-a]pyridin-2-yl)-2-fluorocyclopropane-1-carboxamide] | 0.654 µM | 0.0032 µM | 0.0334 µM
Cc1c[nH]c2ncc(-c3ccn4nc(NC(=O)[C@@H]5C[C@@H]5F)cc4c3)cc12 [Example 12, (1S,2S)-2-fluoro-N-(5-(3-methyl-1H-pyrrolo[2,3-b]pyridin-5-yl)pyrazolo[1,5-a]pyridin-2-yl)cyclopropane-1-carboxamide] | 0.687 µM | 0.0025 µM | 0.0886 µM
CCc1c(-c2ccn3nc(NC(=O)[C@@H]4C[C@@H]4F)cc3c2)cnc2[nH]ccc12 [Example 13, (1S,2S)-N-(5-(4-ethyl-1H-pyrrolo[2,3-b]pyridin-5-yl)pyrazolo[1,5-a]pyridin-2-yl)-2-fluorocyclopropane-1-carboxamide] | – | 0.0123 µM | 0.129 µM
CSc1c(-c2ccn3nc(NC(=O)[C@@H]4C[C@@H]4F)cc3c2)cnc2[nH]ccc12 [Example 14, (1S,2S)-2-fluoro-N-(5-(4-(methylthio)-1H-pyrrolo[2,3-b]pyridin-5-yl)pyrazolo[1,5-a]pyridin-2-yl)cyclopropane-1-carboxamide] | – | 0.0122 µM | 0.195 µM
CC(C)c1c(-c2ccn3nc(NC(=O)[C@@H]4C[C@@H]4F)cc3c2)cnc2[nH]ccc12 [Example 15, (1S,2S)-2-fluoro-N-(5-(4-isopropyl-1H-pyrrolo[2,3-b]pyridin-5-yl)pyrazolo[1,5-a]pyridin-2-yl)cyclopropane-1-carboxamide] | – | 0.159 µM | 0.828 µM
O=C(Nc1cc2cc(-c3cnc4[nH]ccc4c3C3CC3)ccn2n1)[C@@H]1C[C@@H]1F [Example 16, (1S,2S)-N-(5-(4-cyclopropyl-1 H-pyrrolo[2,3-b]pyridin-5-yl)pyrazolo[1,5-a]pyridin-2-yl)-2-fluorocyclopropane-1-carboxamide] | – | 0.013 µM | 0.204 µM
N#Cc1c(-c2ccn3nc(NC(=O)[C@@H]4C[C@@H]4F)cc3c2)cnc2[nH]ccc12 [Example 17, (1S,2S)-N-(5-(4-cyano-1H-pyrrolo[2,3-b]pyridin-5-yl)pyrazolo[1,5-a]pyridin-2-yl)-2-fluorocyclopropane-1-carboxamide] | – | 0.0202 µM | 0.0702 µM
O=C(Nc1cc2cc(-c3cnc4[nH]c(Cl)cc4c3)ccn2n1)[C@@H]1C[C@@H]1F [Example 18, (1S,2S)-N-(5-(2-chloro-1H-pyrrolo[2,3-b]pyridin-5-yl)pyrazolo[1,5-a]pyridin-2-yl)-2-fluorocyclopropane-1-carboxamide] | – | 0.0036 µM | 0.0305 µM
Cc1c(-c2ccn3nc(NC(=O)[C@H]4C[C@H]4F)cc3c2)cnc2[nH]ccc12 [Example 20, (1R,2R)-2-fluoro-N-(5-(4-methyl-1H-pyrrolo[2,3-b]pyridin-5-yl)pyrazolo[1,5-a]pyridin-2-yl)cyclopropane-1-carboxamide] | 0.0655 µM | 0.0031 µM | 0.00837 µM
O=C(Nc1cc2cc(-c3cnc4[nH]ccc4c3Cl)ccn2n1)C1CC1 [Example 23, N-(5-(4-chloro-1H-pyrrolo[2,3-b]pyridin-5-yl)pyrazolo[1,5-a]pyridin-2-yl)cyclopropanecarboxamide] | – | 0.0092 µM | 0.0199 µM
Cc1c(-c2ccn3nc(NC(=O)[C@@H]4C[C@@H]4F)cc3c2)cnc2[nH]cc(Cl)c12 [Example 25, (1S,2S)-N-(5-(3-chloro-4-methyl-1H-pyrrolo[2,3-b]pyridin-5-yl)pyrazolo[1,5-a]pyridin-2-yl)-2-fluorocyclopropane-1-carboxamide] | – | 0.0017 µM | 0.0322 µM
O=C(Nc1cc2cc(-c3cnc4[nH]ccc4c3Cl)ccn2n1)[C@@H]1C[C@H]1F [Example 26, (1S,2R)-N-(5-(4-chloro-1H-pyrrolo[2,3-b]pyridin-5-yl)pyrazolo[1,5-a]pyridin-2-yl)-2-fluorocyclopropane-1-carboxamide] | – | 0.0194 µM | 0.0161 µM
O=C(Nc1cc2cc(-c3cnc4[nH]ccc4c3Cl)ccn2n1)[C@H]1C[C@H]1F [Example 28, (1R,2R)-N-(5-(4-chloro-1H-pyrrolo[2,3-b]pyridin-5-yl)pyrazolo[1,5-a]pyridin-2-yl)-2-fluorocyclopropane-1-carboxamide] | – | 0.0139 µM | 0.0215 µM
